Source: US7129269B2, “Compound” (Sterix Ltd., priority 1996, dated 2006)
Values joined by “and” are separate entries in the source; they are usually repeats but may differ in a detail not shown here. Equal entries are not always repeated.

Assays:
oestrone sulphatase [1] = target: T1, oestrone sulphatase (Homo sapiens, UniProt P08842); test: Oestrone sulphatase inhibition in placental microsomes; type: biochemical; conditions: compared with 19
T1 construct: from tissue; host or cells: placenta (microsomes, 100,000 g)
T1 sequence (P08842 22-583): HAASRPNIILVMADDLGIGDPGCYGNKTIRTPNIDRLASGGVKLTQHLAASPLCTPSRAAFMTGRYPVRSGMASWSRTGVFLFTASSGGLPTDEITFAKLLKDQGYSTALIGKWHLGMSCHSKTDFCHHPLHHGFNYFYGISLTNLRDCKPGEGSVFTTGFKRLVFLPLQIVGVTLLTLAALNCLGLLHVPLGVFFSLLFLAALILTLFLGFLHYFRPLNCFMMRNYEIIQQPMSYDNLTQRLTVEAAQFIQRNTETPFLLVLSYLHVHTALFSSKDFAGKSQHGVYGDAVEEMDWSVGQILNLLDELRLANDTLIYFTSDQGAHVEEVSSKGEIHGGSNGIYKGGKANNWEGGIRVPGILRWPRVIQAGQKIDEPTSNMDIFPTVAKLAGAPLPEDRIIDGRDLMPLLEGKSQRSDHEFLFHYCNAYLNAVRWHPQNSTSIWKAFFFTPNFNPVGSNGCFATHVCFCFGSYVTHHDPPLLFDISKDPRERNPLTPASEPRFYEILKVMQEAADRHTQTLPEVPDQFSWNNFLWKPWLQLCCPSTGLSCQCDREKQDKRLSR

[2] = target: T2, oestrone sulphatase (E1-STS) (Homo sapiens, UniProt P08842); test: Oestrone sulphatase (E1-STS) inhibition in intact MCF-7 breast cancer cells; type: cell-based
T2 construct: endogenous in cells; host or cells: MCF-7 breast cancer cells
T2 sequence (P08842 22-583): T1 sequence (P08842 22-583)

aromatase = target: T3, aromatase (Homo sapiens, UniProt P11511); test: Aromatase inhibition in placental microsomes, tritiated water release assay
T3 sequence (P11511 1-503): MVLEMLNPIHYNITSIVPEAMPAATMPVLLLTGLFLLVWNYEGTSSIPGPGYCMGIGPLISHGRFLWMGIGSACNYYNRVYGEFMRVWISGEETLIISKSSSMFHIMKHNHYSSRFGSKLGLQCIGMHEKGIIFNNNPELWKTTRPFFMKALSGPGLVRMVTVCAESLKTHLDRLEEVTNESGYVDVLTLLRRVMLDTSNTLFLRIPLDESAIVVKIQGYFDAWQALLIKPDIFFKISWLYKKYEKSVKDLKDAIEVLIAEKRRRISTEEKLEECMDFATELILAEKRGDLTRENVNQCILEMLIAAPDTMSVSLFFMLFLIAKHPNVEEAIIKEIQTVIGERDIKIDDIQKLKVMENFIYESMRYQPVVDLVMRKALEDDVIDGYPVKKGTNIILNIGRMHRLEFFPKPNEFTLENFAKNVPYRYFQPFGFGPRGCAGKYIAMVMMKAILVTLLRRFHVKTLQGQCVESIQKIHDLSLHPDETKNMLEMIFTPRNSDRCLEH

oestrone sulphatase [3] = target: T4, oestrone sulphatase (Rattus norvegicus, UniProt P15589); test: In vivo inhibition of oestrone sulphatase activity in rat liver; conditions: 24 hours after single oral dose in propylene glycol; for % Inhibition of oestrone sulphatase in vivo: 10 mg/Kg
T4 construct: from tissue; host or cells: rat liver
T4 sequence (P15589 20-577): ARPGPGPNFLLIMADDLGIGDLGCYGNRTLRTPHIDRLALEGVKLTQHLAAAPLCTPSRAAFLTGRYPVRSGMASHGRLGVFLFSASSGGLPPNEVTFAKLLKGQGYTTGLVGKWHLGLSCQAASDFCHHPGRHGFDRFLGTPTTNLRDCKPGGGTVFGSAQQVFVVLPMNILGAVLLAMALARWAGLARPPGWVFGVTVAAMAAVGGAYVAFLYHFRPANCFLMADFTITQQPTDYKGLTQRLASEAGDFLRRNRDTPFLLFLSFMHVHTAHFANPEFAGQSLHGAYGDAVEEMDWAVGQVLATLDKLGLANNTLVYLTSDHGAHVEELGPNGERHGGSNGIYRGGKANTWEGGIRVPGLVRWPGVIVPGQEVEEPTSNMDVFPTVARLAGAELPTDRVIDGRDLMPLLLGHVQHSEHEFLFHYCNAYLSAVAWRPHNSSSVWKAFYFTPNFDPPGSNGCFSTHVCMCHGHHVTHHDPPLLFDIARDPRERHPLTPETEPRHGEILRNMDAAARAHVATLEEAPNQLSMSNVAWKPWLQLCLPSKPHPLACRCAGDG
Procedure: FIG. 11 presents in vivo inhibition of oestrone sulphatase activity in rat liver for two isoflavones according to the present invention. […] Compounds were administered as a single 10 mg/Kg dose. Oestrone sulphatase activity was assayed in tissue samples obtained 24 h after drug administration.

In the case of NS(=O)(=O)Oc1ccc(C2COc3cc(OS(N)(=O)=O)ccc3C2)cc1 (racemic) [Compound 22, (±) Isoflavane-7,4′-O,O-bisulphamate], the “inhibition of E1-STS activity in placental microsomes (in words)” value (oestrone sulphatase [1]) is reported as “less potent”, the “inhibition of E1-STS activity in MCF-7 cells (in words)” value [2] is reported as “less potent” and the “% Inhibition of sulphatase activity in MCF-7 cells” value (“% Inhibition of sulphatase activity” below) ([2]; 0.1 μM) is reported as >99%. The “% Inhibition of sulphatase activity” value ([2]; 1 μM) was >99%, the “% Inhibition of sulphatase activity” value ([2]; 10 μM) was >99% and the “% Inhibition of aromatase activity in placental microsomes at 10 μM” value (“% Inhibition of aromatase activity” for short) (aromatase) was 13%.
In the case of NS(=O)(=O)Oc1ccc2c(=O)cc(-c3ccccc3)oc2c1 [Compound 1, Flavone-7-O-sulphamate], the “% Inhibition of sulphatase activity” value ([2]; 0.1 μM) is reported as 0.30 ± 0.2%, the “% Inhibition of sulphatase activity” value ([2]; 1 μM) is reported as 1.8 ± 1.0% and the “% Inhibition of sulphatase activity” value ([2]; 10 μM) is reported as 4.9 ± 0.3%.
In the case of NS(=O)(=O)Oc1ccc2oc(-c3ccccc3)cc(=O)c2c1 [Compound 2, Flavone-6-O-sulphamate], the “% Inhibition of sulphatase activity” value ([2]; 1 μM) is reported as 99.1 ± 0.6% and the “% Inhibition of sulphatase activity” value ([2]; 10 μM) is reported as 98.9 ± 1.3%.
For COc1cc2oc(-c3ccccc3)cc(=O)c2c(O)c1OS(N)(=O)=O [Compound 4, 5-Hydroxy-7-methoxy flavone-6-O-sulphamate], the “% Inhibition of sulphatase activity” value ([2]; 0.1 μM) was 11 ± 2.7%, the “% Inhibition of sulphatase activity” value ([2]; 1 μM) was 51 ± 3.0% and the “% Inhibition of sulphatase activity” value ([2]; 10 μM) was 78 ± 1.7%.
In the case of COc1cc(O)c2c(=O)cc(-c3ccc(OS(N)(=O)=O)cc3)oc2c1 [Compound 5, 5-Hydroxy-7-methoxy-flavone-4′-O-sulphamate], the “% Inhibition of sulphatase activity” value ([2]; 0.1 μM) is reported as 35 ± 4.0%, the “% Inhibition of sulphatase activity” value ([2]; 1 μM) is reported as 88 ± 3.1% and the “% Inhibition of sulphatase activity” value ([2]; 10 μM) is reported as 99 ± 0.6%.
In the case of COc1ccc(-c2cc(=O)c3c(O)c(OC)c(OC)cc3o2)cc1OS(N)(=O)=O [Compound 6, 5-Hydroxy 4′,6,7-Trimethoxy flavone-3′-O-sulphamate], the “% Inhibition of sulphatase activity” value ([2]; 0.1 μM) is reported as “* (*Inactive)”, the “% Inhibition of sulphatase activity” value ([2]; 1 μM) is reported as 18 ± 6.1% and the “% Inhibition of sulphatase activity” value ([2]; 10 μM) is reported as 27 ± 3.5%.
In the case of COc1ccc(-c2cc(=O)c3c(OC)c(OC)c(OC)cc3o2)cc1OS(N)(=O)=O [Compound 7, 4′,5,6,7-Tetramethoxy flavone-3′-O-sulphamate], the “% Inhibition of sulphatase activity” value ([2]; 0.1 μM) is reported as 29 ± 0.8%, the “% Inhibition of sulphatase activity” value ([2]; 1 μM) is reported as 23 ± 1.8% and the “% Inhibition of sulphatase activity” value ([2]; 10 μM) is reported as 12 ± 0.5%.
NS(=O)(=O)Oc1ccc(-c2cc(=O)c3ccccc3o2)cc1OS(N)(=O)=O [Compound 8, Flavone-3′,4′-O,O-bisulphamate] was tested, and the “% Inhibition of sulphatase activity” value ([2]; 0.1 μM) was “* (*Inactive)”, the “% Inhibition of sulphatase activity” value ([2]; 1 μM) was 13 ± 8.0% and the “% Inhibition of sulphatase activity” value ([2]; 10 μM) was 29 ± 1.3%.
For NS(=O)(=O)Oc1ccc(-c2cc(=O)c3c(O)cc(OS(N)(=O)=O)cc3o2)cc1 [Compound 9, 5-Hydroxy flavone-4′,7-O,O-bisulphamate], the “% Inhibition of sulphatase activity” value ([2]; 0.1 μM) was 8 ± 2.6%, the “% Inhibition of sulphatase activity” value ([2]; 1 μM) was 79 ± 0.8% and the “% Inhibition of sulphatase activity” value ([2]; 10 μM) was 98 ± 0.4%.
For NS(=O)(=O)Oc1cc(O)c2c(=O)c(OS(N)(=O)=O)c(-c3ccccc3)oc2c1 [Compound 10, 5-Hydroxy flavone-3,7-O,O-bisulphamate], the “% Inhibition of sulphatase activity” value ([2]; 0.1 μM) was “* (*Inactive)”, the “% Inhibition of sulphatase activity” value ([2]; 1 μM) was 8 ± 6.4% and the “% Inhibition of sulphatase activity” value ([2]; 10 μM) was 12 ± 7.5%.
COc1ccc(-c2oc3cc(OS(N)(=O)=O)cc(O)c3c(=O)c2OS(N)(=O)=O)cc1 [Compound 11, 5-Hydroxy-4′-methoxy flavone-3,7-O,O-bisulphamate] was tested, and the “% Inhibition of sulphatase activity” value ([2]; 0.1 μM) was “* (*Inactive)”, the “% Inhibition of sulphatase activity” value ([2]; 1 μM) was “* (*Inactive)” and the “% Inhibition of sulphatase activity” value ([2]; 10 μM) was “* (*Inactive)”.
In the case of COc1cc(-c2oc3cc(OS(N)(=O)=O)cc(O)c3c(=O)c2OS(N)(=O)=O)cc(OC)c1OC [Compound 12, 5-Hydroxy-3′,4′,5′-Trimethoxy flavone-3,7-O,O-bisulphamate], the “% Inhibition of sulphatase activity” value ([2]; 0.1 μM) is reported as “* (*Inactive)”, the “% Inhibition of sulphatase activity” value ([2]; 1 μM) is reported as “* (*Inactive)” and the “% Inhibition of sulphatase activity” value ([2]; 10 μM) is reported as “* (*Inactive)”.
In the case of COc1cc(-c2oc3cc(O)cc(O)c3c(=O)c2OS(N)(=O)=O)cc(OC)c1OC [Compound 13, 5,7-Dihydroxy-3′,4′,5′-Trimethoxy flavone-3-O-sulphamate], the “% Inhibition of sulphatase activity” value ([2]; 0.1 μM) is reported as “* (*Inactive)”, the “% Inhibition of sulphatase activity” value ([2]; 1 μM) is reported as “* (*Inactive)” and the “% Inhibition of sulphatase activity” value ([2]; 10 μM) is reported as “* (*Inactive)”.
In the case of COc1cc(-c2oc3cc(OS(N)(=O)=O)ccc3c(=O)c2OS(N)(=O)=O)cc(OC)c1OC [Compound 14, 3′,4′,5′-Trimethoxy flavone-3,7-O,O-bisulphamate], the “% Inhibition of sulphatase activity” value ([2]; 0.1 μM) is reported as “* (*Inactive)”, the “% Inhibition of sulphatase activity” value ([2]; 1 μM) is reported as “* (*Inactive)” and the “% Inhibition of sulphatase activity” value ([2]; 10 μM) is reported as “* (*Inactive)”.
For COc1cc(-c2oc3cc(O)ccc3c(=O)c2OS(N)(=O)=O)cc(OC)c1OC [Compound 15, 7-Hydroxy 3′,4′,5′-Trimethoxy flavone-3-O-sulphamate], the “% Inhibition of sulphatase activity” value ([2]; 0.1 μM) was “* (*Inactive)”, the “% Inhibition of sulphatase activity” value ([2]; 1 μM) was “* (*Inactive)” and the “% Inhibition of sulphatase activity” value ([2]; 10 μM) was “* (*Inactive)”.
COc1ccc(-c2coc3cc(OS(N)(=O)=O)cc(O)c3c2=O)cc1 [Compound 16, 5-Hydroxy-4′-methoxyisoflavone 7-O-sulphamate] was tested, and the “% Inhibition of sulphatase activity” value ([2]; 0.1 μM) was “* (*Inactive)”, the “% Inhibition of sulphatase activity” value ([2]; 1 μM) was 11 ± 3.0% and the “% Inhibition of sulphatase activity” value ([2]; 10 μM) was 37 ± 1.7%. For the same compound, the “% Inhibition of aromatase activity” value (aromatase) was “* (*Inactive)”.
NS(=O)(=O)Oc1ccc(-c2coc3cc(OS(N)(=O)=O)cc(O)c3c2=O)cc1 [Compound 17, 5-Hydroxy isoflavone-4′,7-O,O-bisulphamate] was tested, and the “% Inhibition of sulphatase activity” value ([2]; 0.1 μM) was 22–87% and 28 ± 1.7%, the “% Inhibition of sulphatase activity” value ([2]; 1 μM) was 79–99% and the “% Inhibition of oestrone sulphatase in vivo” value (“% Inhibition … in vivo” for short) (oestrone sulphatase [3]) was 81.4 ± 3.2%. For the same compound, the “% Inhibition of aromatase activity” value (aromatase) was “* (*Inactive)”.
In the case of NS(=O)(=O)Oc1ccc(-c2coc3cc(O)cc(O)c3c2=O)cc1 [Compound 18, 5,7-Dihydroxy isoflavone-4′-O-sulphamate], the “% Inhibition of sulphatase activity” value ([2]; 0.1 μM) is reported as 23 ± 2.2%, the “% Inhibition of sulphatase activity” value ([2]; 1 μM) is reported as 83 ± 2.7% and the “% Inhibition of sulphatase activity” value ([2]; 10 μM) is reported as 99 ± 0.7%. The “% Inhibition … in vivo” value (oestrone sulphatase [3]) was 62.0 ± 4.7% and the “% Inhibition of aromatase activity” value (aromatase) was “* (*Inactive)”.
With NS(=O)(=O)Oc1ccc(-c2coc3cc(OS(N)(=O)=O)ccc3c2=O)cc1 [Compound 19, Isoflavone-4′,7-O,O-bisulphamate] the “% Inhibition … in vivo” value (oestrone sulphatase [3]) was 71.4 ± 2.9% and the “% Inhibition of aromatase activity” value (aromatase) was “* (*Inactive)”.
In the case of COc1ccc(C2CC(=O)c3c(O)cc(OS(N)(=O)=O)cc3O2)cc1OS(N)(=O)=O (stereo not drawn) [Compound 21, 5-Hydroxy 4′-methoxy flavanone-3′,7-O,O-bisulphamate], the “% Inhibition of sulphatase activity” value ([2]; 0.1 μM) is reported as 2 ± 1.3%, the “% Inhibition of sulphatase activity” value ([2]; 1 μM) is reported as 8 ± 0.6% and the “% Inhibition of sulphatase activity” value ([2]; 10 μM) is reported as 9 ± 1.2%.
With C[C@]12CC[C@@H]3c4ccc(OS(N)(=O)=O)cc4CC[C@H]3[C@@H]1CCC2=O [EMATE, oestrone-3-sulphamate, reference compound] the inhibition at 1 mg/kg (oestrone sulphatase [3]; 1 mg/Kg) was > 99%.
